Laboratory results reported in ChEMBL document CHEMBL3991601, “The target landscape of clinical kinase drugs” (Science, 2017).
Calls of active or inactive are those of the source. Rule as the data show it, for most assays here: actives have a measured Kd and inactives only a lower limit.

Legend:
[1] = molecular target: T1, Serine/threonine-protein kinase Chk1 (Homo sapiens, UniProt O14757)
T1 sequence (O14757 whole entry): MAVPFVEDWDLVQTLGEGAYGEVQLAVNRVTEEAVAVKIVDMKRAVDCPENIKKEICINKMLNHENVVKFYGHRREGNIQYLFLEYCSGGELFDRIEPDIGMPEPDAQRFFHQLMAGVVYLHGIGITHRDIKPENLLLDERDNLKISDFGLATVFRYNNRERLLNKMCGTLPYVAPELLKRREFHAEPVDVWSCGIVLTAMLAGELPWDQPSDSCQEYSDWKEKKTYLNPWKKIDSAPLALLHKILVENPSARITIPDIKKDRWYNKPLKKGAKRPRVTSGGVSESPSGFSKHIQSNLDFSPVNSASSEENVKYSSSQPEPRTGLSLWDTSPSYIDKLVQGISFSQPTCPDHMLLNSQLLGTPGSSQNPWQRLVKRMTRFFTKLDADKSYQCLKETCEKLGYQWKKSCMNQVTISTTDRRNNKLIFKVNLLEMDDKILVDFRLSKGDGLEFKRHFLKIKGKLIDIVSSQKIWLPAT

[2] = molecular target: Eukaryotic translation initiation factor 2-alpha kinase 1 (Homo sapiens, UniProt Q9BQI3)
[3] = molecular target: T2, Mitogen-activated protein kinase 15 (Homo sapiens, UniProt Q8TD08)
T2 sequence (Q8TD08 whole entry): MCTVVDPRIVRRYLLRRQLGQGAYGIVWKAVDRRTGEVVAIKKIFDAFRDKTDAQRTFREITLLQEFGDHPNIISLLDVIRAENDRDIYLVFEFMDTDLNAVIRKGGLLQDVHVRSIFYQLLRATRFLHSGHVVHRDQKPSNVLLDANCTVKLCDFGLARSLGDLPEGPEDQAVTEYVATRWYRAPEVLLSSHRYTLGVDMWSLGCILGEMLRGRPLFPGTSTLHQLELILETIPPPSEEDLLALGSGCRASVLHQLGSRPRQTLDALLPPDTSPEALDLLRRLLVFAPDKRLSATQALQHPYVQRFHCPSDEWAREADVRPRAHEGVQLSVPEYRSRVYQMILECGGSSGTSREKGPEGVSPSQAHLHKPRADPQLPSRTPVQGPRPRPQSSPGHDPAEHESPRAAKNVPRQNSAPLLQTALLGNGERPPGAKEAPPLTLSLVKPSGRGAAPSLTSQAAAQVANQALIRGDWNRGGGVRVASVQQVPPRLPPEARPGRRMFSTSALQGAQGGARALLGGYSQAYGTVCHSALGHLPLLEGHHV

[4] = molecular target: Maternal embryonic leucine zipper kinase (Homo sapiens, UniProt Q14680)
[5] = molecular target: Macrophage-stimulating protein receptor (Homo sapiens, UniProt Q04912)
[6] = molecular target: T3, Ribosyldihydronicotinamide dehydrogenase [quinone] (Homo sapiens, UniProt P16083)
T3 sequence (P16083 whole entry): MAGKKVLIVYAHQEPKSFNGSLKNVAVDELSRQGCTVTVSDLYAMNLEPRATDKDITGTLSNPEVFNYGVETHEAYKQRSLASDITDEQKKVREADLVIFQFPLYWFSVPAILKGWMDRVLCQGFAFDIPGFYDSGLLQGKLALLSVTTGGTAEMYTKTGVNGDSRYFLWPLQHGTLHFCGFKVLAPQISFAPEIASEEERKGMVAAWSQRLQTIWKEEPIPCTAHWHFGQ

[7] = molecular target: Serine/threonine-protein kinase N2 (Homo sapiens, UniProt Q16513)
[8] = molecular target: T4, STE20-related kinase adapter protein alpha (Homo sapiens, UniProt Q7RTN6)
T4 sequence (Q7RTN6 whole entry): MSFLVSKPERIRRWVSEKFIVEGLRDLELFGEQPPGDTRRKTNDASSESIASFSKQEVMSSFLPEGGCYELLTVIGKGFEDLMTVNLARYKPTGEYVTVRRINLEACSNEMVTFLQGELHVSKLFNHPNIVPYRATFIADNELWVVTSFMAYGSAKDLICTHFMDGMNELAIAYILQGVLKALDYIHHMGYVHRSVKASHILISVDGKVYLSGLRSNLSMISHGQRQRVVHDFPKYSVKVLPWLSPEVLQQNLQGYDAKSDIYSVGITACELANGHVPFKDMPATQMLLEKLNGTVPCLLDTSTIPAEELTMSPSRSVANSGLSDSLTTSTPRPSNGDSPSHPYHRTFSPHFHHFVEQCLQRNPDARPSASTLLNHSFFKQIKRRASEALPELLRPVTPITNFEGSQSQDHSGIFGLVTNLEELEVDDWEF

[9] = molecular target: T5, Cysteine--tRNA ligase, cytoplasmic (Homo sapiens, UniProt P49589)
T5 sequence (P49589 whole entry): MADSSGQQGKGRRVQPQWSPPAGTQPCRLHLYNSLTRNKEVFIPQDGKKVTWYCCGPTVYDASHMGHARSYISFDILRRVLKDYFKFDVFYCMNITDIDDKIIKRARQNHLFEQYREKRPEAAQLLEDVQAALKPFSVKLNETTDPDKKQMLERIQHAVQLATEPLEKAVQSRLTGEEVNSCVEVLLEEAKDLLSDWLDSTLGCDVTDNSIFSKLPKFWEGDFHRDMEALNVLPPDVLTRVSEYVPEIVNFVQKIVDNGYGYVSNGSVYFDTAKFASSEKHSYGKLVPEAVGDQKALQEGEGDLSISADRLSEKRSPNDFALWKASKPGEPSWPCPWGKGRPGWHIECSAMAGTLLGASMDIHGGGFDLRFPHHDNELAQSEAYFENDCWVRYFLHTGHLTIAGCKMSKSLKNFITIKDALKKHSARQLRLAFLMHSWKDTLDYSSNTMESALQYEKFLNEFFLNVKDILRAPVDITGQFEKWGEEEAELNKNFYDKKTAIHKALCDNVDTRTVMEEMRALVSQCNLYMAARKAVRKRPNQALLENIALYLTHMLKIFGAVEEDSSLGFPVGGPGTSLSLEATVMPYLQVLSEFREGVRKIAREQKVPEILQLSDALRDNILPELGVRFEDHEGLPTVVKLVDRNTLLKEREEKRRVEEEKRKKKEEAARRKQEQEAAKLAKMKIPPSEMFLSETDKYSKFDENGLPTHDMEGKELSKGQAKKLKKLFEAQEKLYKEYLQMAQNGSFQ

[10] = molecular target: Serine/threonine-protein kinase PAK 2 (Homo sapiens, UniProt Q13177)
Also: in the data inactive means no Kd found up to 30 µM.

Sequence of Eukaryotic translation initiation factor 2-alpha kinase 1 (Q9BQI3 whole entry): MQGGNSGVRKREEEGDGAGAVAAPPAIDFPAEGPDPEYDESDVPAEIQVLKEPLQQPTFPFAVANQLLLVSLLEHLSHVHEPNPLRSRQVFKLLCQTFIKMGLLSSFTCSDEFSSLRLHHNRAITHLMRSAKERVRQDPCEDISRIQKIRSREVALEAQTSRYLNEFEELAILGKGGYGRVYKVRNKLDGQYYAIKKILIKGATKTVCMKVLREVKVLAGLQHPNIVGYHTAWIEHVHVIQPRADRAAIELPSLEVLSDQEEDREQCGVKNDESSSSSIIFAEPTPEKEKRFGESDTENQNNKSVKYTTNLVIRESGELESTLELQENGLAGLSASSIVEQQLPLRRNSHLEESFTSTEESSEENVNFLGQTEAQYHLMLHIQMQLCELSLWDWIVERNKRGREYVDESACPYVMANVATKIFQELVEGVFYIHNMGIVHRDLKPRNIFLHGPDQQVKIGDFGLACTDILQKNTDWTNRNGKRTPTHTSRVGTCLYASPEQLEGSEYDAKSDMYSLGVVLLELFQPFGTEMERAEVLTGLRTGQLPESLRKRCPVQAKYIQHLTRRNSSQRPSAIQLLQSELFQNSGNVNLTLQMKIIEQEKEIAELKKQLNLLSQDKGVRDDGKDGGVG
Sequence of Serine/threonine-protein kinase PAK 2 (Q13177 whole entry): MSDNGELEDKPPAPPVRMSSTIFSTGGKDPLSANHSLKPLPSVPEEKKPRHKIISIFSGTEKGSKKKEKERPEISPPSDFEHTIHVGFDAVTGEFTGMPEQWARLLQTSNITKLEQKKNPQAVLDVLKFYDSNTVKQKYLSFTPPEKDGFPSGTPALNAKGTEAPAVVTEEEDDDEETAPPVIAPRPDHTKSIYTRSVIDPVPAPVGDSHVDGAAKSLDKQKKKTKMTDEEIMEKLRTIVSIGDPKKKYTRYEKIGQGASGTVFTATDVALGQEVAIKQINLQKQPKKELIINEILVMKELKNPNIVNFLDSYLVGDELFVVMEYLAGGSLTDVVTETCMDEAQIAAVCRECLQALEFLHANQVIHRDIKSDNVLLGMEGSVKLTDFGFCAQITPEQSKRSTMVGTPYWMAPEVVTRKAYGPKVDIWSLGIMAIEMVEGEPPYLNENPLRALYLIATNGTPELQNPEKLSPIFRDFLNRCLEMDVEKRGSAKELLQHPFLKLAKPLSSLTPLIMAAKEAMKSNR
Sequence of Serine/threonine-protein kinase N2 (Q16513 whole entry): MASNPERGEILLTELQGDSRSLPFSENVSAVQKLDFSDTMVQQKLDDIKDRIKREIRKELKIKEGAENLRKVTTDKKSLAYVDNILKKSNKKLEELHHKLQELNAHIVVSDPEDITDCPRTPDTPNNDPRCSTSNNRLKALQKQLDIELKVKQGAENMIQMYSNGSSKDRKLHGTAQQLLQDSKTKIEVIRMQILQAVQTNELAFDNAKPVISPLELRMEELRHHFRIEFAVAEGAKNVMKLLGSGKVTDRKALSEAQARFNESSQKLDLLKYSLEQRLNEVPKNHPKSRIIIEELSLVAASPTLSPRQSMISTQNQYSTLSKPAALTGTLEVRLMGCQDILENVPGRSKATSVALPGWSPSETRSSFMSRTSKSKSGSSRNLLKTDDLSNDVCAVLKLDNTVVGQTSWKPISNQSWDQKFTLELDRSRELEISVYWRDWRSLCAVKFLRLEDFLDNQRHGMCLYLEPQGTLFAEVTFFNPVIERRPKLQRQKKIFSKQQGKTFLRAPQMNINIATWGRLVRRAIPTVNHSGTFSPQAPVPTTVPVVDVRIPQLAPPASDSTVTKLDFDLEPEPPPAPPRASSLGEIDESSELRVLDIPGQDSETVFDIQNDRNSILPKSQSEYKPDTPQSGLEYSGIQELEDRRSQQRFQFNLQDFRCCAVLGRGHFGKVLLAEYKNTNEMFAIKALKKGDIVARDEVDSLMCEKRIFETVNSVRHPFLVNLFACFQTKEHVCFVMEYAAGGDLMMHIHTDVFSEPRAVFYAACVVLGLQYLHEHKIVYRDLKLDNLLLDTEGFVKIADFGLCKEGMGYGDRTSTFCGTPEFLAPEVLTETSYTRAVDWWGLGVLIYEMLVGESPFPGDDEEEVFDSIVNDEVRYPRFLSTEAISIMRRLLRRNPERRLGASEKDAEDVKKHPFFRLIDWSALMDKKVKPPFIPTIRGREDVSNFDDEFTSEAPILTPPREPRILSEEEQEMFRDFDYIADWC
Sequence of Macrophage-stimulating protein receptor (Q04912 25-304 limits assumed): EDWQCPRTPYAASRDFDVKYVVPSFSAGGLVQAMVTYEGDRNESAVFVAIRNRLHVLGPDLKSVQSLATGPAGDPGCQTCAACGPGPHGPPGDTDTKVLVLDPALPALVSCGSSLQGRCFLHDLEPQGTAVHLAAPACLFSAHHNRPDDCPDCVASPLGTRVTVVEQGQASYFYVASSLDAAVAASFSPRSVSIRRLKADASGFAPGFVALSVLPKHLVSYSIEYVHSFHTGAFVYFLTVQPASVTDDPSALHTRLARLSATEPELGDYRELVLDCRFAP
Sequence of Macrophage-stimulating protein receptor (Q04912 310-1400 limits assumed): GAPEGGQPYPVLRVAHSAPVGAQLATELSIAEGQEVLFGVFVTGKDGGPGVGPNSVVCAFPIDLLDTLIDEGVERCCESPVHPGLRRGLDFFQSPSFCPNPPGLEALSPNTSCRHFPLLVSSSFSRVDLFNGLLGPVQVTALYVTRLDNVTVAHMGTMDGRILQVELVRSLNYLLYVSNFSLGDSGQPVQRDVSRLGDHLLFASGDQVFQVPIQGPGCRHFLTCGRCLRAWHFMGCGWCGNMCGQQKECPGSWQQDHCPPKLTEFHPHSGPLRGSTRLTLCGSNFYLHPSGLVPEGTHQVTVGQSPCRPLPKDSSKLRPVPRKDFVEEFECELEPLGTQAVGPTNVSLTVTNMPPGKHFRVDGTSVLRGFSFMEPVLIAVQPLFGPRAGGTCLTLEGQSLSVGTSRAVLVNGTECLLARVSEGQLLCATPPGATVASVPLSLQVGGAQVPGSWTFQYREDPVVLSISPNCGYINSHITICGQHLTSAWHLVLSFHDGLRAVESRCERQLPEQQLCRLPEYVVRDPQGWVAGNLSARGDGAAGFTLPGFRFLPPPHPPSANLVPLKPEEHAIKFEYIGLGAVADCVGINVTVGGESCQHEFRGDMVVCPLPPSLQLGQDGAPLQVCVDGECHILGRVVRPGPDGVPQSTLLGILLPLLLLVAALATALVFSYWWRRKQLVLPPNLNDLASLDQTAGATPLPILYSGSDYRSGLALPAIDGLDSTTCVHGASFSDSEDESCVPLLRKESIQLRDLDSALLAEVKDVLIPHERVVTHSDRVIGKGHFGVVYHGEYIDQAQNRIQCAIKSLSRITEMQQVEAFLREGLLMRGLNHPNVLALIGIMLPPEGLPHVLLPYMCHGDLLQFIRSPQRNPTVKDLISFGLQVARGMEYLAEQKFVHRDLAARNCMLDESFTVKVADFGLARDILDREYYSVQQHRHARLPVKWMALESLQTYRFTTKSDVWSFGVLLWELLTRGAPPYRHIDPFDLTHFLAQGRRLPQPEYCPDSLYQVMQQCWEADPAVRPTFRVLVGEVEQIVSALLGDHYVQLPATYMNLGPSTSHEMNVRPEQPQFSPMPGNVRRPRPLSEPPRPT
Sequence of Maternal embryonic leucine zipper kinase (Q14680 whole entry): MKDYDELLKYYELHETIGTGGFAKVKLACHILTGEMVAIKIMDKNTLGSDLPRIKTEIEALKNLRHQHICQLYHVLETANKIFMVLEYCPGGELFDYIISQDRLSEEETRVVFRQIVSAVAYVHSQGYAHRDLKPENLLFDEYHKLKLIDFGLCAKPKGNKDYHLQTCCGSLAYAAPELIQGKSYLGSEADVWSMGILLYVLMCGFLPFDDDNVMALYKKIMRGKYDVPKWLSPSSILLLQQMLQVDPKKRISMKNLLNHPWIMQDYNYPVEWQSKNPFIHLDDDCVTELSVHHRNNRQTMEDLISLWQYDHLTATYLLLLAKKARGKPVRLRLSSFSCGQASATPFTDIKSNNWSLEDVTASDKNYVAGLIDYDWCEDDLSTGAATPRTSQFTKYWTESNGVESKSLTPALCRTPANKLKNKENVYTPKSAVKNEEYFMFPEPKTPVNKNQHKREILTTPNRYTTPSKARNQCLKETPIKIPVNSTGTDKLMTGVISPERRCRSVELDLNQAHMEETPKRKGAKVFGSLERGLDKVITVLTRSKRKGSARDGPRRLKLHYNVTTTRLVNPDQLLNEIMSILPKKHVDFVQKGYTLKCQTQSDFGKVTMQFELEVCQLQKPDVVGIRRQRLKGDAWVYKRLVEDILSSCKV

Row | Kd [1] | Kd [2] | Kd [4] | Kd [5] | Kd [6] | Kd [7] | Kd [8] | Kd [9] | Kd [10] | SMILES | Kd [3]
1 |  |  |  |  | > 30 µM (inactive) |  | > 30 µM (inactive) | > 30 µM (inactive) | > 30 µM (inactive) | Cc1cc(Nc2cc(N3CCN(C)CC3)nc(/C=C/c3ccccc3)n2)n[nH]1 [ENMD-2076] | > 30 µM (inactive)
2 | > 30 µM (inactive) | > 30 µM (inactive) | > 30 µM (inactive) | > 30 µM (inactive) | > 30 µM (inactive) | > 30 µM (inactive) | > 30 µM (inactive) |  |  | Cc1c(F)cc(C(=O)NC2CC2)cc1-c1ccc(C(=O)NCC(C)(C)C)cn1 [LOSMAPIMOD] | > 30 µM (inactive)
3 | > 30 µM (inactive) | > 30 µM (inactive) | > 30 µM (inactive) | > 30 µM (inactive) | 6.36 µM (active) | > 30 µM (inactive) | > 30 µM (inactive) |  |  | COc1cc(N2CCC(N3CCN(C)CC3)CC2)ccc1Nc1ncnc(Nc2ccccc2S(=O)(=O)C(C)C)n1 [ASP-3026] | > 30 µM (inactive)
4 |  |  |  |  | > 30 µM (inactive) |  | > 30 µM (inactive) | > 30 µM (inactive) |  | CCn1c(-c2nonc2N)nc2c(C#CC(C)(C)O)ncc(OC[C@H]3CCCNC3)c21 [GSK-690693] | 
5 |  |  |  |  | 3.01 µM (active) |  | > 30 µM (inactive) | > 30 µM (inactive) |  | CN1CCN(c2ccc3nc(-c4c(N)c5c(F)cccc5[nH]c4=O)[nH]c3c2)CC1 [DOVITINIB] | 
6 | > 30 µM (inactive) | > 30 µM (inactive) | > 30 µM (inactive) | > 30 µM (inactive) |  | > 30 µM (inactive) | > 30 µM (inactive) |  |  | C1=C/COCc2cc(ccc2OCCN2CCCC2)Nc2nccc(n2)-c2cccc(c2)COC/1 [PACRITINIB] | > 30 µM (inactive)
7 | > 30 µM (inactive) | > 30 µM (inactive) | > 30 µM (inactive) | > 30 µM (inactive) | 0.323 µM (active) | > 30 µM (inactive) | > 30 µM (inactive) |  | > 30 µM (inactive) | Cn1cc(-c2ccc3nnc(C(F)(F)c4ccc5ncccc5c4)n3n2)cn1 [JNJ-38877605] | > 30 µM (inactive)
8 |  | > 30 µM (inactive) |  | 0.575 µM (active) | 0.648 µM (active) |  | > 30 µM (inactive) | > 30 µM (inactive) | > 30 µM (inactive) | Cc1nc(N)sc1-c1ccnc(Nc2ccc(N3CCOCC3)cc2)n1 [CYC-116] | > 30 µM (inactive)
9 | > 30 µM (inactive) | > 30 µM (inactive) | > 30 µM (inactive) | > 30 µM (inactive) | > 30 µM (inactive) | > 30 µM (inactive) | > 30 µM (inactive) |  |  | Cn1cc(-c2ccc(F)c(C(F)(F)F)c2)nc1C1CCN(c2ncnc3[nH]ncc23)CC1 [LY-2584702] | > 30 µM (inactive)

The remaining lines, values behind:

Row | SMILES | Kd [1] | Kd [2] | Kd [4] | Kd [5] | Kd [6] | Kd [7] | Kd [8] | Kd [9] | Kd [10] | Kd [3]
10 | C[C@@H](Nc1cc(F)cc(F)c1)c1cc(C(=O)N(C)C)cc2c(=O)cc(N3CCOCC3)oc12 [AZD-8186] | > 30 µM (inactive) | > 30 µM (inactive) | > 30 µM (inactive) | > 30 µM (inactive) | > 30 µM (inactive) | > 30 µM (inactive) | > 30 µM (inactive) |  |  | > 30 µM (inactive)
11 | C=CC(=O)N1CCC(Oc2cc3c(Nc4ccc(Cl)c(Cl)c4F)ncnc3cc2OC)CC1 [POZIOTINIB] | > 30 µM (inactive) | > 30 µM (inactive) | > 30 µM (inactive) | > 30 µM (inactive) | > 30 µM (inactive) | > 30 µM (inactive) | > 30 µM (inactive) |  | > 30 µM (inactive) | > 30 µM (inactive)
12 | Nc1nc(N)c2nc(-c3cccc(O)c3)c(-c3cccc(O)c3)nc2n1 [TG100-115] |  |  |  |  | > 30 µM (inactive) |  | > 30 µM (inactive) | > 30 µM (inactive) |  | 
13 | O=C(Nc1cccc(Cl)c1)Nc1ncc(CCNc2ncnc3ccsc23)s1 [SNS-314] |  | > 30 µM (inactive) |  |  | > 30 µM (inactive) |  | > 30 µM (inactive) | > 30 µM (inactive) | > 30 µM (inactive) | > 30 µM (inactive)
14 | O=C1NC(=O)/C(=C/c2ccc3nccc(-c4ccncc4)c3c2)S1 [GSK-1059615] | > 30 µM (inactive) | > 30 µM (inactive) | > 30 µM (inactive) | > 30 µM (inactive) | > 30 µM (inactive) | > 30 µM (inactive) | > 30 µM (inactive) |  | > 30 µM (inactive) | > 30 µM (inactive)
15 | Cn1ncc(Cl)c1-c1cc(C(=O)N[C@H](CN)Cc2cccc(F)c2)sc1Cl [AFURESERTIB] | > 30 µM (inactive) | > 30 µM (inactive) | > 30 µM (inactive) | > 30 µM (inactive) | > 30 µM (inactive) | > 30 µM (inactive) | > 30 µM (inactive) |  | > 30 µM (inactive) | > 30 µM (inactive)
16 | CCc1cnn2c(NCc3ccc[n+]([O-])c3)cc(N3CCCC[C@H]3CCO)nc12 [DINACICLIB] |  | > 30 µM (inactive) | > 30 µM (inactive) |  | > 30 µM (inactive) | > 30 µM (inactive) | > 30 µM (inactive) | > 30 µM (inactive) | > 30 µM (inactive) | > 30 µM (inactive)
17 | Cc1cn(-c2cc(NC(=O)c3ccc(C)c(Nc4nccc(-c5cccnc5)n4)c3)cc(C(F)(F)F)c2)cn1 [NILOTINIB] |  |  |  |  | 1.48 µM (active) |  | > 30 µM (inactive) | > 30 µM (inactive) |  | 
18 | CNC(=O)c1ccc(C)c(-n2c(C)cc(OCc3ccc(F)cc3F)c(Br)c2=O)c1 [PH-797804] | > 30 µM (inactive) | > 30 µM (inactive) | > 30 µM (inactive) | > 30 µM (inactive) | > 30 µM (inactive) | > 30 µM (inactive) | 0.672 µM |  | > 30 µM (inactive) | > 30 µM (inactive)
19 | COC(=O)[C@@]1(O)C[C@H]2O[C@]1(C)n1c3ccccc3c3c4c(c5c6ccccc6n2c5c31)C(=O)NC4 [K-252A] | 0.122 µM (active) | > 30 µM (inactive) | 0.083 µM (active) | > 30 µM (inactive) | 4.03 µM (active) | 0.361 µM (active) | > 30 µM (inactive) |  | > 30 µM (inactive) | 0.167 µM (active)
